# Laboratory results as given in patent US9840513B2 (AbbVie S.à.r.l., priority 2015, dated 2017).
# Molecular target: T1, F508delCFTR cell surface expression in CFBE41o-F508delCFTR-HRP cells (Homo sapiens, UniProt P13569, DEL508-508)
# T1 construct: fused on or other part: Horseradish peroxidase (HRP) reporter inserted in the fourth exofacial (extracellular) loop of CFTR; expression is doxycycline-inducible
# Assay: Cell Surface Expression-Horse Radish Peroxidase (CSE-HRP) Assay
# Assay type: cell-based
# Conditions: for EC50: CFBE41o-F508delCFTR-HRP cells, 18-24 hours at 33° C., 8-point curve, highest concentration 20 μM; for Maximum % activity (%): maximum at any tested concentration, normalized to on-plate positive control (3 μM)
# Method in brief: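 Correctors incubated 18-24 h at 33 °C on doxycycline-induced (0.5 μg/mL, 72 h) CFBE41o-F508delCFTR-HRP cells, 3-fold series from 20 μM. After DPBS washes, luminol luminescence read; activity expressed relative to DMSO and a 3 μM positive control, EC50 fitted from triplicate plates.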
# T1 sequence (P13569 with tags, fused parts or gaps DEL508-508 limits assumed): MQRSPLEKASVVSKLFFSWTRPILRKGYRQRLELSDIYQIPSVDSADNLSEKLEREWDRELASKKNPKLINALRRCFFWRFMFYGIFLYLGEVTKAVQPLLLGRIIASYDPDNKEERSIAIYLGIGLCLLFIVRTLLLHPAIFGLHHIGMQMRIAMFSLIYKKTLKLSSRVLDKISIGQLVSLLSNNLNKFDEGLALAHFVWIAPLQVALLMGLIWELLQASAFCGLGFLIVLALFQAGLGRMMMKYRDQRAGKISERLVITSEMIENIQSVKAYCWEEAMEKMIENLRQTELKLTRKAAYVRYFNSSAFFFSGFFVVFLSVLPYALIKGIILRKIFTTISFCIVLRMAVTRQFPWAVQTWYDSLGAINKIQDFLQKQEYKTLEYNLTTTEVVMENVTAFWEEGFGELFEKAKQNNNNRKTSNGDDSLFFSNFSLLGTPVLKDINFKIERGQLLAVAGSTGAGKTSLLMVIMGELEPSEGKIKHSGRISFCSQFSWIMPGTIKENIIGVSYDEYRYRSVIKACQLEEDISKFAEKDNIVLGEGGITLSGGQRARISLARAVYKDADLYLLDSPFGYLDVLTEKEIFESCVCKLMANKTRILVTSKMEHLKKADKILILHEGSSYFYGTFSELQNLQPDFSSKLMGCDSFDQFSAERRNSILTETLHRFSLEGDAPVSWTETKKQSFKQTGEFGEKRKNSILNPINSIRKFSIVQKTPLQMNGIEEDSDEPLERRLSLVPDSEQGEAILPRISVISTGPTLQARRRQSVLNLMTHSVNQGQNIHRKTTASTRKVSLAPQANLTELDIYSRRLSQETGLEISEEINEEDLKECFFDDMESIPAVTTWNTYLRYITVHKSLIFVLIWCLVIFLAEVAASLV
# T1 sequence (P13569 919-1480 limits assumed, stated change not applied): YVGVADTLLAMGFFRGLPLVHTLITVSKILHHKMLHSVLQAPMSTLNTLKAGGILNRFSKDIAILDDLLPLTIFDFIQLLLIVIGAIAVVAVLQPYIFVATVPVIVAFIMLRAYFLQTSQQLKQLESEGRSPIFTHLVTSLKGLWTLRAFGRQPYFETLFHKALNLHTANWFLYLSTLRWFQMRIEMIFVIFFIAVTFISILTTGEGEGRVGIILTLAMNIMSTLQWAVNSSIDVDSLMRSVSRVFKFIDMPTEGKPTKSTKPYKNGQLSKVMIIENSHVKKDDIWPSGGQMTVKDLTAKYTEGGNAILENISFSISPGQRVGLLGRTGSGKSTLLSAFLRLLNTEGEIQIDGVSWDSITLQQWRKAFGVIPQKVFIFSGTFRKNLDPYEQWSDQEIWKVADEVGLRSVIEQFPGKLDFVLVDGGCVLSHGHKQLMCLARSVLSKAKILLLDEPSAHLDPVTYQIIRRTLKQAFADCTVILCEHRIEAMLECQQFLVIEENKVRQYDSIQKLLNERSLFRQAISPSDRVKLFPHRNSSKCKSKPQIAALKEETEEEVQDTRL
SMILES,EC50 [nM],Maximum % activity (%)
"C[C@]1(C(=O)Nc2cccc(-c3cccc(C(=O)O)c3F)n2)COc2cc3c(cc21)OC(F)(F)O3 [Example 125, 3-(6-{[(7R)-2,2-difluoro-7-methyl-6,7-dihydro-2H-furo[2,3-f][1,3]benzodioxole-7-carbonyl]amino}pyridin-2-yl)-2-fluorobenzoic acid]",1390,136
"Cc1ccc(NC(=O)[C@@]2(C)COc3cc4c(cc32)OC(F)(F)O4)nc1-c1cccc(C(O)CO)c1 (stereo partly drawn) [Example 126, (7R)—N-{6-[3-(1,2-dihydroxyethyl)phenyl]-5-methylpyridin-2-yl}-2,2-difluoro-7-methyl-6,7-dihydro-2H-furo[2,3-f][1,3]benzodioxole-7-carboxamide]",620,140
"CC(C)(C)c1cc2cc(NC(=O)[C@@]3(C)COc4cc5c(cc43)OC(F)(F)O5)c(F)cc2n1C[C@@H](O)COCc1ccccc1 [Example 132, (7R)—N-{1-[(2R)-3-(benzyloxy)-2-hydroxypropyl]-2-tert-butyl-6-fluoro-1H-indol-5-yl}-2,2-difluoro-7-methyl-6,7-dihydro-2H-furo[2,3-f][1,3]benzodioxole-7-carboxamide]",330,138
"CC(C)(CO)c1cc2cc(NC(=O)[C@]3(C)COc4cc5c(cc43)OC(F)(F)O5)c(F)cc2n1C[C@@H](O)CO [Example 138, (7S)—N-{1-[(2R)-2,3-dihydroxypropyl]-6-fluoro-2-(1-hydroxy-2-methylpropan-2-yl)-1H-indol-5-yl}-2,2-difluoro-7-methyl-6,7-dihydro-2H-furo[2,3-f][1,3]benzodioxole-7-carboxamide]",7650,23
"C[C@]1(C(=O)N[C@@H]2C[C@H](c3ccc(C(=O)O)cc3)Oc3cc(OC(F)F)ccc32)COc2cc3c(cc21)OC(F)(F)O3 [Example 139, 4-[(2R,4R)-7-(difluoromethoxy)-4-{[(7R)-2,2-difluoro-7-methyl-6,7-dihydro-2H-furo[2,3-f][1,3]benzodioxole-7-carbonyl]amino}-3,4-dihydro-2H-1-benzopyran-2-yl]benzoic acid]",20,158
"Cc1ccc(NC(=O)[C@@]2(C)COc3cc4c(cc32)OC(F)(F)O4)nc1-c1ccc(C(=O)NS(C)(=O)=O)cc1 [Example 142, (7R)-2,2-difluoro-N-(6-{4-[(methanesulfonyl)carbamoyl]phenyl}-5-methylpyridin-2-yl)-7-methyl-6,7-dihydro-2H-furo[2,3-f][1,3]benzodioxole-7-carboxamide]",2500,180
"CCOC(=O)[C@H]1CC[C@H]([C@@H]2C[C@H](NC(=O)[C@@]3(C)COc4cc5c(cc43)OC(F)(F)O5)c3ccc(OC(F)(F)F)cc3O2)CC1 [Example 147, ethyl trans-4-[(2S,4S)-4-{[(7R)-2,2-difluoro-7-methyl-6,7-dihydro-2H-furo[2,3-f][1,3]benzodioxole-7-carbonyl]amino}-7-(trifluoromethoxy)-3,4-dihydro-2H-1-benzopyran-2-yl]cyclohexane-1-carboxylate]",2240,79
"CCOC(=O)[C@H]1CC[C@H]([C@H]2C[C@@H](NC(=O)[C@@]3(C)COc4cc5c(cc43)OC(F)(F)O5)c3ccc(OC(F)(F)F)cc3O2)CC1 [Example 148, ethyl trans-4-[(2R,4R)-4-{[(7R)-2,2-difluoro-7-methyl-6,7-dihydro-2H-furo[2,3-f][1,3]benzodioxole-7-carbonyl]amino}-7-(trifluoromethoxy)-3,4-dihydro-2H-1-benzopyran-2-yl]cyclohexane-1-carboxylate]",41,145
"CCOC(=O)[C@H]1CC[C@H]([C@@H]2C[C@H](NC(=O)[C@@]3(C)COc4cc5c(cc43)OC(F)(F)O5)c3ccc(OC)cc3O2)CC1 [Example 152, ethyl trans-4-[(2S,4S)-4-{[(7R)-2,2-difluoro-7-methyl-6,7-dihydro-2H-furo[2,3-f][1,3]benzodioxole-7-carbonyl]amino}-7-methoxy-3,4-dihydro-2H-1-benzopyran-2-yl]cyclohexane-1-carboxylate]",806,102
"CCOC(=O)[C@H]1CC[C@H]([C@H]2C[C@@H](NC(=O)[C@@]3(C)COc4cc5c(cc43)OC(F)(F)O5)c3ccc(OC)cc3O2)CC1 [Example 153, ethyl trans-4-[(2R,4R)-4-{[(7R)-2,2-difluoro-7-methyl-6,7-dihydro-2H-furo[2,3-f][1,3]benzodioxole-7-carbonyl]amino}-7-methoxy-3,4-dihydro-2H-1-benzopyran-2-yl]cyclohexane-1-carboxylate]",304,135

# Continued, values first:
EC50 [nM],Maximum % activity (%),SMILES
460,140,"Cc1ccc(NC(=O)[C@@]2(C)COc3cc4c(cc32)OC(F)(F)O4)nc1-c1cc(C(=O)O)cs1 [Example 127, 5-(6-{[(7R)-2,2-difluoro-7-methyl-6,7-dihydro-2H-furo[2,3-f][1,3]benzodioxole-7-carbonyl]amino}-3-methylpyridin-2-yl)thiophene-3-carboxylic acid]"
4960,172,"C[C@]1(C(=O)Nc2cccc(-c3cc(C(=O)O)ccc3F)n2)COc2cc3c(cc21)OC(F)(F)O3 [Example 128, 3-(6-{[(7R)-2,2-difluoro-7-methyl-6,7-dihydro-2H-furo[2,3-f][1,3]benzodioxole-7-carbonyl]amino}pyridin-2-yl)-4-fluorobenzoic acid]"
2260,129,"Cc1ccc(C(=O)O)cc1-c1cccc(NC(=O)[C@@]2(C)COc3cc4c(cc32)OC(F)(F)O4)n1 [Example 129, 3-(6-{[(7R)-2,2-difluoro-7-methyl-6,7-dihydro-2H-furo[2,3-f][1,3]benzodioxole-7-carbonyl]amino}pyridin-2-yl)-4-methylbenzoic acid]"
1310,173,"CC(C)(C)c1cc2cc(NC(=O)[C@@]3(C)COc4cc5c(cc43)OC(F)(F)O5)ccc2[nH]1 [Example 131, (7R)—N-(2-tert-butyl-1H-indol-5-yl)-2,2-difluoro-7-methyl-6,7-dihydro-2H-furo[2,3-f][1,3]benzodioxole-7-carboxamide]"
300,132,"CC(C)(C)c1cc2cc(NC(=O)[C@@]3(C)COc4cc5c(cc43)OC(F)(F)O5)c(F)cc2n1C[C@@H](O)CO [Example 133, (7R)—N-{2-tert-butyl-1-[(2R)-2,3-dihydroxypropyl]-6-fluoro-1H-indol-5-yl}-2,2-difluoro-7-methyl-6,7-dihydro-2H-furo[2,3-f][1,3]benzodioxole-7-carboxamide]"
490,129,"CC(C)(CO)c1cc2cc(NC(=O)[C@@]3(C)COc4cc5c(cc43)OC(F)(F)O5)c(F)cc2[nH]1 [Example 143, (7R)-2,2-difluoro-N-[6-fluoro-2-(1-hydroxy-2-methylpropan-2-yl)-1H-indol-5-yl]-7-methyl-6,7-dihydro-2H-furo[2,3-f][1,3]benzodioxole-7-carboxamide]"
